These results are taken from PMC8286840, “Identifying SARS-CoV-2 antiviral compounds by screening for small molecule inhibitors of Nsp3 papain-like protease” (Biochemical Journal, 2021).

Where a name gives a salt, the structure may show the parent alone. Read-outs that look alike come from different tables or passages of the source.

Test [1] concerns the target T1, SARS-CoV-2 PLpro (nsp3 1564–1878) (Severe acute respiratory syndrome coronavirus 2, UniProt P0DTD1). Briefly: biochemical. More on the design: FRET-quenched peptide (Pro3) cleavage by PLpro, 10 min pre-incubation, slope over 20 min, normalised to no-compound control. The conditions noted are these: low concentration screen, read-out: % of control remaining.
Test [2] concerns the target T1, SARS-CoV-2 PLpro (nsp3 1564–1878). Briefly: biochemical. Details: FRET-quenched peptide (Pro3) cleavage by PLpro, 10 min pre-incubation, slope over 20 min, normalised to no-compound control. The conditions noted are these: high concentration screen, read-out: % of control remaining.

Take `O=C(O)c1ccc(O)c2ncccc12` [IOX1]: the remaining activity at 1.25 µM in test [1] (Well no.=5529) is 102%. Further, the remaining activity at 3.75 µM in test [2] (Well no.=5529) came out at 104%.

On to `CC(=O)OCC(=O)[C@@]1(O)[C@H](C)C[C@H]2[C@@H]3CCC4=CC(=O)C=C[C@]4(C)[C@@]3(F)[C@@H](O)C[C@@]21C` [Dexamethasone (acetate)], for which, in test [1] (Well no.=6465), the remaining activity at 1.25 µM is 107%. The remaining activity at 3.75 µM in test [2] (Well no.=6465) came to 106%.

For the compound `CN(C)c1nc(N(C)C)nc(N(C)C)n1` [Altretamine], the figures for the remaining activity at 1.25 µM in test [1] (Well no.=8) and in test [1] (Well no.=2081) were 96% and 101%, respectively. Besides, the results for the remaining activity at 3.75 µM in test [2] (Well no.=8) and in test [2] (Well no.=2081) were 98.2% and 101%, respectively.

`CNCCNS(=O)(=O)c1cccc2cnccc12` [H-8, Dihydrochloride]: in test [1] (Well no.=2431), the remaining activity at 1.25 µM was determined as 106%. The remaining activity at 3.75 µM in test [2] (Well no.=2431) was determined as 105%.

For `C[C@@]1(CO)[C@H](O)CC[C@@]2(C)[C@H]1CC[C@H]1C[C@@H]3C[C@@]12CC[C@]3(O)CO` [Aphidicolin], in test [1] (Well no.=3476), the remaining activity at 1.25 µM was determined as 104%. Besides, in test [2] (Well no.=3476), the remaining activity at 3.75 µM came out at 101%.

For `C=CC1=C(C)/C(=C/c2[nH]c(Cc3[nH]c(/C=C4\NC(=O)C(C)=C4C=C)c(C)c3CCC(=O)O)c(CCC(=O)O)c2C)NC1=O` [Bilirubin], in test [1] (Well no.=7013), the remaining activity at 1.25 µM was 103%. For the same compound, the remaining activity at 3.75 µM in test [2] (Well no.=7013) is 104%.

For `O=C(NCC(=O)N1CC[C@H](N[C@H]2CC[C@@](O)(c3ccc(-c4ncccn4)cn3)CC2)C1)c1cccc(C(F)(F)F)c1` [PF-4136309], the remaining activity at 1.25 µM amounted to 98.3% in test [1] (Well no.=7097) and 98% in test [1] (Well no.=8085). The remaining activity at 3.75 µM is 98.1% in test [2] (Well no.=7097) and 89% in test [2] (Well no.=8085).

With `Nc1cc(-c2ccncc2)c[nH]c1=O` [amrinone], in test [1] (Well no.=2146), the remaining activity at 1.25 µM is 102%. Also, the remaining activity at 3.75 µM in test [2] (Well no.=2146) stood at 100%.

Regarding `CC1CS(=O)(=O)CCN1/N=C/c1ccc([N+](=O)[O-])o1` (centres unmarked) [Nifurtimox], the remaining activity at 1.25 µM in test [1] (Well no.=5382) is 98.3%. Further, the remaining activity at 3.75 µM in test [2] (Well no.=5382) worked out at 99.2%.

As for `c1ccc2c(c1)[I+]c1ccccc1-2` [Diphenyleneiodonium chloride], the remaining activity at 1.25 µM in test [1] (Well no.=591) was determined as 99.6%. Moreover, in test [2] (Well no.=591), the remaining activity at 3.75 µM was determined as 105%.

Regarding `Cc1ccc(O)c(N=Nc2c(O)cc(S(=O)(=O)O)c3ccccc23)c1` [Calmagite], the remaining activity at 1.25 µM in test [1] (Well no.=8168) worked out at 96.3%. The remaining activity at 3.75 µM in test [2] (Well no.=8168) stood at 82.2%.

Take `O[C@H]1CCN2Cc3ccccc3N=C12` [Vasicine]: the remaining activity at 1.25 µM in test [1] (Well no.=3406) was found to be 97.8%. In test [2] (Well no.=3406), the remaining activity at 3.75 µM came to 94.4%.

`OC[C@H]1O[C@@H](Oc2cc(O)cc(/C=C/c3ccc(O[C@@H]4O[C@H](CO)[C@@H](O)[C@H](O)[C@H]4O)cc3O)c2)[C@H](O)[C@@H](O)[C@@H]1O` [Mulberroside A]: in test [1] (Well no.=6340), the remaining activity at 1.25 µM was 93%. Further, the remaining activity at 3.75 µM in test [2] (Well no.=6340) was 90.9%.

Regarding `O=C(/C=C/c1ccc(O)c(O)c1)c1ccc(O)cc1O` [Butein], the remaining activity at 1.25 µM in test [1] (Well no.=3272) worked out at 96.3%. Besides, the remaining activity at 3.75 µM in test [2] (Well no.=3272) is 97.5%.

On to `O=c1oc2ccccc2c(O)c1Cc1c(O)c2ccccc2oc1=O` [Dicoumarol], for which the remaining activity at 1.25 µM in test [1] (Well no.=3547) turned out to be 104%. The remaining activity at 3.75 µM in test [2] (Well no.=3547) turned out to be 105%.

`CN(C)CCN(Cc1ccccc1)c1ccccn1` [Tripelennamine HCl]: in test [1] (Well no.=4979), the remaining activity at 1.25 µM was 94.3%. Besides, the remaining activity at 3.75 µM in test [2] (Well no.=4979) worked out at 93%.

On to `Nc1ncnc2c1c(-c1cccc(OCc3ccccc3)c1)cn2C1CC(CN2CCCC2)C1` (stereo in doubt) [NVP-ADW742], for which the remaining activity at 1.25 µM in test [1] (Well no.=4629) stood at 95.7%. Moreover, the remaining activity at 3.75 µM in test [2] (Well no.=4629) is 93.2%.

As for `CN1CCC(Nc2ncc3ncnc(Nc4ccc(F)c(Cl)c4)c3n2)CC1` [BIBX 1382 dihydrochloride - N8-(3-Chloro-4-fluorophenyl)-N2-(1-methyl-4-piperidinyl)-pyrimido[5,4-d]pyrimidine-2,8-diamine dihydrochloride], the remaining activity at 1.25 µM in test [1] (Well no.=2528) was 96.6%. Also, the remaining activity at 3.75 µM in test [2] (Well no.=2528) stood at 91%.

For the compound `O=C(O)Cc1ccc(O)c(O)c1` [3,4-Dihydroxybenzeneacetic acid], the remaining activity at 1.25 µM in test [1] (Well no.=6355) is 104%. The remaining activity at 3.75 µM in test [2] (Well no.=6355) amounted to 106%.

`O=C(Nc1c[nH]nc1-c1nc2ccc(CN3CCOCC3)cc2[nH]1)NC1CC1` [AT9283]: in test [1] (Well no.=2884), the remaining activity at 1.25 µM worked out at 93.2%. Also, the remaining activity at 3.75 µM in test [2] (Well no.=2884) was found to be 95.8%.

In the case of `CN(C)CCC=C1c2ccccc2C=Cc2ccccc21` [Cyclobenzaprine (hydrochloride)], the remaining activity at 1.25 µM in test [1] (Well no.=6284) was determined as 106%. Further, the remaining activity at 3.75 µM in test [2] (Well no.=6284) was determined as 105%.

As for `CC1=Nc2ccc(Cl)cc2S(=O)(=O)N1` [Diazoxide], the remaining activity at 1.25 µM worked out at 105% in test [1] (Well no.=394) and 92.9% in test [1] (Well no.=1804). Also, the values for the remaining activity at 3.75 µM in test [2] (Well no.=394) and in test [2] (Well no.=1804) were 101% and 93.4%, respectively.

In the case of `CC(=O)OCC(=O)[C@@]1(O)CC[C@H]2[C@@H]3CCC4=CC(=O)CC[C@]4(C)[C@H]3C(=O)C[C@@]21C` [Cortisone 21-acetate], the remaining activity at 1.25 µM in test [1] (Well no.=172) was 92.9%. Further, in test [2] (Well no.=172), the remaining activity at 3.75 µM came to 92.8%.

Regarding `O=C(O)C1=CCCN(CCON=C(c2ccccc2)c2ccccc2)C1` [NO-711 hydrochloride], the remaining activity at 1.25 µM in test [1] (Well no.=1149) was found to be 92.4%. For the same compound, in test [2] (Well no.=1149), the remaining activity at 3.75 µM worked out at 88.4%.

With `CS(=O)(=O)N1CCc2c(-c3cnc(N)nc3)nc(N3CCOCC3)nc21` [CH5132799], the remaining activity at 1.25 µM in test [1] (Well no.=5348) amounted to 95.8%. The remaining activity at 3.75 µM in test [2] (Well no.=5348) amounted to 96%.

With `O=C1c2cccc3c2[C@H](CCC3)CN1[C@@H]1CN2CCC1CC2` [Palonosetron HCl], in test [1] (Well no.=4923), the remaining activity at 1.25 µM was 99.3%. In addition, the remaining activity at 3.75 µM in test [2] (Well no.=4923) was found to be 98.2%.

For `CCCCC(C#N)(Cn1cncn1)c1ccc(Cl)cc1` (centres unmarked) [Myclobutanil], the remaining activity at 1.25 µM in test [1] (Well no.=2001) turned out to be 105%. The remaining activity at 3.75 µM in test [2] (Well no.=2001) was 102%.

With `CC(C)Oc1ccc(C(=O)Cn2ccnc2)cc1-n1c(CN2CCN(C(=O)COc3ccc(Cl)cc3)CC2)nc2ccccc2c1=O` [Imidazole ketone erastin], in test [1] (Well no.=6884), the remaining activity at 1.25 µM was 95.5%. In addition, the remaining activity at 3.75 µM in test [2] (Well no.=6884) was 97%.

`CNC1(C)C2CCC(C2)C1(C)C` (centres unmarked) [Mecamylamine hydrochloride]: in test [1] (Well no.=987), the remaining activity at 1.25 µM is 98.1%. The remaining activity at 3.75 µM in test [2] (Well no.=987) is 99.8%.

In the case of `CCN(CC)C(=O)/C(C#N)=C/c1cc(O)c(O)c([N+](=O)[O-])c1` [Entacapone], the remaining activity at 1.25 µM in test [1] (Well no.=1888) turned out to be 96.2%. Also, the remaining activity at 3.75 µM in test [2] (Well no.=1888) came to 93%.

For the compound `Cc1cc2ncc(-c3ccccc3)nc2cc1C` [AG 1295], in test [1] (Well no.=2611), the remaining activity at 1.25 µM is 97.5%. In addition, the remaining activity at 3.75 µM in test [2] (Well no.=2611) was 97.7%.
